Consider eight compounds from patent US20250059474A1, “Liquid formulation comprising an alcohol and highly water soluble manganese complex salt catalyst, bleaching formulation and cleaning agent comprising the same” (Catexel GmbH, priority 2023, published 2025).

Data set [1] in a line: Stability of PVOH pouches containing solvents. As to conditions: 26 weeks at 40° C. then 26 weeks at room temperature. On the procedure:
In small pouches made from a standard PVOH film, different solvents were added (1 mL), the pouch was sealed using a hot plate (150° C.). The pouches containing the solvent were stored for 26 weeks at 40° C. and then for 26 weeks at room temperature.

The nature of data set [2]: Dissolution and storage stability of MnTACN salts in various solvents. Type of data set: physicochemical. On the procedure: Dissolution of MnTACN-PF6 catalyst in various solvents was performed. First a screening was done in which solvents the PF6 salt of the MnTACN catalyst could be dissolved.
Data set [3] in a line: Solubility in water at 20° C. In kind it is physicochemical.
A short description of data set [4]: Dishwash machine tea-stain cleaning experiments. As to conditions: 0 = no cleaning, 100 = complete removal. On the procedure:
A standard dishwash machine tablet was prepared using the same ingredients as disclosed in WO2022/058039 (Weylchem Performance Products GmbH). Together with each tablet (14 g) on top, either no catalyst was added (blank), 100 mg of Weylclean® FDO X (uncoated granules containing 2 wt-% of MnTACN-PF6 (comparative)) was added, or 82 mg of dipropylene glycol containing 1.64 mg of dissolved MnTACN-SO4 (Exp low MnTACN-SO4) or 100 mg of dipropylene glycol containing 2 mg of dissolved MnTACN-SO4 (Exp high MnTACN-SO4).

Where [5] appears, read: Dowanol PM with 3 wt % citric acid.
[6] abbreviates: dipropylene glycol with 3 wt % of nitric acid.
The mark [7] stands for this setting: dipropylene glycol with 3 wt % sulfuric acid.
[8] abbreviates: propylene glycol, no acids added.

Molecules are shown by their SMILES. Where two headings read alike, the source gives them in different places.

As for `COC(C)COC(C)CO` (stereo not drawn) [Dowanol DPM, dipropylene glycol methyl ether], the “stability of PVOH pouches containing the solvent” value in data set [1] (solvent without acid, 1 mL) is reported as “good stability”.
As to `COCC(C)O` (stereo not drawn) [Dowanol PM, propylene glycol methyl ether], the “stability of PVOH pouches containing the solvent” value is “not stable” in data set [1] (solvent with 3 wt % H2SO4); “good stability” in data set [1] (solvent with 3 wt % HNO3); “not stable” in data set [1] (solvent with 3 wt % citric acid); “not stable” in data set [1] (solvent without acid, 1 mL).
As for `CN1CCN(C)CCN(C)CC1.CN1CCN(C)CCN(C)CC1.O.O.O.[Cl-].[Cl-].[Mn+4].[Mn+4].[O-2].[O-2].[O-2]` [MnTACN-Cl2, [Mn^IV2(μ-O)3(Me3-TACN)2]Cl2*3H2O], the solubility in solvent result in data set [2] (dipropylene glycol, had to be heated) is reported as “dissolved”. Further, the solubility in water entry is “greater than 182 g/L” in data set [3] and above 18.2 wt % in data set [3] (equated from g/L).
Regarding `CN1CCN(C)CCN(C)CC1.CN1CCN(C)CCN(C)CC1.O=[N+]([O-])[O-].O=[N+]([O-])[O-].[Mn+4].[Mn+4].[O-2].[O-2].[O-2]` [MnTACN-NO3, [Mn^IV2(μ-O)3(Me3-TACN)2](NO3)2], the “solubility and stability in solvent” value in data set [2] (setting [5]) is “good solubility and stability”; in data set [2] (Dowanol PM with sulfuric acid), “good solubility and stability”; in data set [2] (Dowanol PM without acid), “good solubility and stability”; in data set [2] (dipropylene glycol), “good solubility and stability”; in data set [2] (setting [6]), “good solubility and stability”; in data set [2] (setting [7]), “good solubility and stability”. Also, the “solubility and stability in solvent” value in data set [2] (setting [8]) is “good solubility and stability”. The solubility in water entry is listed as “greater than 283 g/L” in data set [3] and above 28.3 wt % in data set [3] (equated from g/L).
As for `CN1CCN(C)CCN(C)CC1.CN1CCN(C)CCN(C)CC1.F[P-](F)(F)(F)(F)F.F[P-](F)(F)(F)(F)F.O.[Mn+4].[Mn+4].[O-2].[O-2].[O-2]` [MnTACN-PF6, [Mn^IV2(μ-O)3(Me3-TACN)2](PF6)2*H2O, reference compound], the solubility in solvent entry in data set [2] (1,3-propanol-diol), in data set [2] (1-hexanol), in data set [2] (1-propanol), in data set [2] (2-ethyl-1-hexanol), in data set [2] (2-propanol) and in data set [2] (Dowanol DPM) was “Poor solubility” in each case. The solubility in solvent entry in data set [2] (acetonitrile) is “dissolved very well”; in data set [2] (ethanol (abs)), “Poor solubility”; in data set [2] (ethyl acetate), “Poor solubility”; in data set [2] (ethylene glycol, after heating), “dissolved”; in data set [2] (formic acid) it was “well soluble”. The “solubility and stability in solvent” value in data set [2] (Dowanol PM without acid) and in data set [2] (dipropylene glycol) was “Poor solubility” in each case. In data set [2] (formic acid), the “stability (appearance) in solution” value is recorded as “turned brown”. In addition, the solubility in water in data set [3] came out at 10.8 g/L.
As to `CN1CCN(C)CCN(C)CC1.CN1CCN(C)CCN(C)CC1.O.O.O.O.O=S(=O)([O-])[O-].[Mn+4].[Mn+4].[O-2].[O-2].[O-2]` [MnTACN-SO4, [Mn^IV2(μ-O)3(Me3-TACN)2]SO4*4H2O], the “solubility and stability in solvent” value is “good solubility and stability” in data set [2] (setting [5]); “poor solubility” in data set [2] (Dowanol PM with nitric acid); “poor solubility” in data set [2] (Dowanol PM with sulfuric acid); “good solubility and stability” in data set [2] (Dowanol PM without acid); “good solubility and stability” in data set [2] (dipropylene glycol); “good solubility and stability” in data set [2] (dipropylene glycol with 3 wt % citric acid). The “solubility and stability in solvent” value in data set [2] (setting [6]) was “precipitation”; in data set [2] (setting [7]), “precipitation”; in data set [2] (setting [8]), “good solubility and stability”. Besides, the “tea-stain cleaning on tea cups” value worked out at 80 points in data set [4] (14 g tablet + 82 mg dipropylene glycol containing 1.64 mg dissolved catalyst (Exp low)) and 85 points in data set [4] (14 g tablet + 100 mg dipropylene glycol containing 2 mg dissolved catalyst (Exp high)). Moreover, the solubility in water entry in data set [3] is given as “greater than 735 g/L”; in data set [3] (equated from g/L), above 73.5 wt %.
Turning to `CN1CCN(C)CCN(C)CC1.CN1CCN(C)CCN(C)CC1.Cc1ccc(S(=O)(=O)[O-])cc1.Cc1ccc(S(=O)(=O)[O-])cc1.[Mn+4].[Mn+4].[O-2].[O-2].[O-2]` [MnTACN-Ts2, [Mn^IV2(μ-O)3(Me3-TACN)2](tosylate)2], the “solubility and stability in solvent” value in data set [2] (dipropylene glycol) was “dissolved”. Also, the solubility in water result is reported as “greater than 100 g/L” in data set [3] and above 10 wt % in data set [3] (equated from g/L).
In the case of `CN1CCN(C)CCN(C)CC1.CN1CCN(C)CCN(C)CC1.O.O.O.O.O=C([O-])c1ccccc1.O=C([O-])c1ccccc1.[Mn+4].[Mn+4].[O-2].[O-2].[O-2]` [MnTACN-benzoate, [Mn^IV2(μ-O)3(Me3-TACN)2](benzoate)2*4H2O], the “solubility and stability in solvent” value in data set [2] (dipropylene glycol) is given as “dissolved well”. For the same compound, the “stability upon storage in solution” value in data set [2] (dipropylene glycol, room temperature for at least 7 months) is “very high stability”. Moreover, the solubility in water entry in data set [3] is listed as “greater than 1000 g/L”.
